Experimental data reported in PMC4769319, “Cohesin Releases DNA through Asymmetric ATPase-Driven Ring Opening” (Molecular Cell, 2016).

Molecular target: T1, Smc1/Smc3 heterodimer with Scc1-C (cohesin) (Saccharomyces cerevisiae, UniProt P32908+P47037)
T1 construct: N-terminal tags; Sf9 insect cells; fluorescently labelled for MST; with Sister chromatid cohesion protein 1
T1 sequence (P32908 1-1225): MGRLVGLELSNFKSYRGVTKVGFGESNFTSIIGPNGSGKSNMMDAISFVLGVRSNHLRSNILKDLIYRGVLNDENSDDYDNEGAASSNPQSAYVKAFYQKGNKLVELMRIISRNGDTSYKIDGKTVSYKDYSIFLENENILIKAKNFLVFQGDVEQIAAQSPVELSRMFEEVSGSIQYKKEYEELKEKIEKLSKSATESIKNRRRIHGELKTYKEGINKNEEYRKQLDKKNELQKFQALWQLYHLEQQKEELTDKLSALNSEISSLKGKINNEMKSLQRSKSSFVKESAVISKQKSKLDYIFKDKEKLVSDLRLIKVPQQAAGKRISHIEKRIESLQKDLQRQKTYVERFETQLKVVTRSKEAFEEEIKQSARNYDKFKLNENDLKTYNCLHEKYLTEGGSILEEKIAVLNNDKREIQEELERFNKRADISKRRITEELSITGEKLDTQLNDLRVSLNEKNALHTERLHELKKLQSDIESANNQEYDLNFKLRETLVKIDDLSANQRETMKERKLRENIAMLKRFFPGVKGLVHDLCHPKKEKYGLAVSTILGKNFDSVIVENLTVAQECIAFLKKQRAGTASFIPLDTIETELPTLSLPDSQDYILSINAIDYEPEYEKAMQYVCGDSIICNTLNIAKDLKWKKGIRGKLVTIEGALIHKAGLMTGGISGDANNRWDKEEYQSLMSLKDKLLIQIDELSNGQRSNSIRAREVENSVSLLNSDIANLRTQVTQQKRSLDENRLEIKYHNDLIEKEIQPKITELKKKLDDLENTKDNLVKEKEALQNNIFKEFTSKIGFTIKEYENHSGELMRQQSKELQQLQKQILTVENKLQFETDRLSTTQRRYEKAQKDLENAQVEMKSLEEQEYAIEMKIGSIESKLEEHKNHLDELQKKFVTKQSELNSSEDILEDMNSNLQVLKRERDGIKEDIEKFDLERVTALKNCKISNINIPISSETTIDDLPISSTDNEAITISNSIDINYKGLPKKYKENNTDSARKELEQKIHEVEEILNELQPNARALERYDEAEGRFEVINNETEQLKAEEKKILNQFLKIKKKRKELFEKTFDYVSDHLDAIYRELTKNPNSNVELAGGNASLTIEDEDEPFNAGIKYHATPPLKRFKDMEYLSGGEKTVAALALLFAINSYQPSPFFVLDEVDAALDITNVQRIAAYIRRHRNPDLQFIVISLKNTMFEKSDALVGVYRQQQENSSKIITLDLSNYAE
T1 sequence (P47037 1-1230): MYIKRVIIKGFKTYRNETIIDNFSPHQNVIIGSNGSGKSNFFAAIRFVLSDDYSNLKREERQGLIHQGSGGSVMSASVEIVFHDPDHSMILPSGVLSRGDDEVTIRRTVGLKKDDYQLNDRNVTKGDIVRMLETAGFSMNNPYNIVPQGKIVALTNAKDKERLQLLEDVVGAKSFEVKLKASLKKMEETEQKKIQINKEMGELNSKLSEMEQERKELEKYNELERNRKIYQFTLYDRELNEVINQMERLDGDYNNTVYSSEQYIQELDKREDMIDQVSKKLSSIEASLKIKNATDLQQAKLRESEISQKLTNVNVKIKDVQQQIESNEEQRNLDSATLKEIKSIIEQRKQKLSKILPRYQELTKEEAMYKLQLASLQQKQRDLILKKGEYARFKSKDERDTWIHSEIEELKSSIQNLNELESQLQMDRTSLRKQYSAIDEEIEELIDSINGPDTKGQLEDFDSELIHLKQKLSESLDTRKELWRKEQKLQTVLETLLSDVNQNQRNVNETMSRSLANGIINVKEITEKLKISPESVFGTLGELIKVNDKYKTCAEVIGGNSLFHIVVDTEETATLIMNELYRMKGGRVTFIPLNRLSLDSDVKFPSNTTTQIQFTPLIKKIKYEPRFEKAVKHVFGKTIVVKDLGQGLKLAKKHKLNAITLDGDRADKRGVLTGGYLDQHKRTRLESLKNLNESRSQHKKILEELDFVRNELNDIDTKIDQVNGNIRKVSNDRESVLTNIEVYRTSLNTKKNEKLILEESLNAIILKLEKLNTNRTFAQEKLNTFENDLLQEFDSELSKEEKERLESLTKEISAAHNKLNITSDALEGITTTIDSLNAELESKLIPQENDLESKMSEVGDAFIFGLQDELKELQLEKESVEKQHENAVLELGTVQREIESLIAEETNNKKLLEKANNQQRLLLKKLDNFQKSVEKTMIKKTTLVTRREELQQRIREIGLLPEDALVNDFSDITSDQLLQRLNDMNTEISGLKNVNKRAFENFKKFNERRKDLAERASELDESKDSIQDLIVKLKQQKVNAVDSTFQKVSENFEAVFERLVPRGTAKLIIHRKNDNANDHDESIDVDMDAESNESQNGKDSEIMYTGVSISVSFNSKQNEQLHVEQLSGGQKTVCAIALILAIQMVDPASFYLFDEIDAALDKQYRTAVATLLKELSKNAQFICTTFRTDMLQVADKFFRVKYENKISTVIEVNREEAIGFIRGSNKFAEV
T1 sequence (Q12158 1-566 partner): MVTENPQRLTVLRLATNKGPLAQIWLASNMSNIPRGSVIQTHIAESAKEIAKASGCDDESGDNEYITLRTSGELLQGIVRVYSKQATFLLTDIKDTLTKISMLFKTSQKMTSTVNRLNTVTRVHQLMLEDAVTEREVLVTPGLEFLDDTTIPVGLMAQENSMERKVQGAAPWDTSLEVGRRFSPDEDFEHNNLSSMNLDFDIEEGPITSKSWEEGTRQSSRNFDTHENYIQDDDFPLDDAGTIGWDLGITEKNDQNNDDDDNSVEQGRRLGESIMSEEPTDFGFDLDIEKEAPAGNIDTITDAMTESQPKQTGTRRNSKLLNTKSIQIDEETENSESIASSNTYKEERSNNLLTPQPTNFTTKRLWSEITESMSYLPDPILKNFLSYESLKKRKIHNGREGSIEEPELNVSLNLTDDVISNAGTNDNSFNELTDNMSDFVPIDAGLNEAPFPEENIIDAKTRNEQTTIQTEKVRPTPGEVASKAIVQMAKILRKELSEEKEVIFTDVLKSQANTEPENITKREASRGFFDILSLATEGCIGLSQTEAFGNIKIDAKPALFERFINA
Assay: microscale thermophoresis
Assay type: binding
Conditions: fluorescently labelled protein; Smc1 co-purified with Scc1-C, plus Smc3; read-out: affinity
Source text: microscale thermophoresis on Smc1/Smc3 heterodimer with Scc1-C (cohesin) | wild-type and mutant cohesin complexes appear to have similar affinities to ADP

Kd: > 1000 µM
Structure (SMILES): Nc1ncnc2c1ncn2[C@@H]1O[C@H](COP(=O)(O)OP(=O)(O)O)[C@@H](O)[C@H]1O [ADP]
